Tests used:
[1] = biological target: T1, angiotensin II (AII) receptors (Cavia porcellus, UniProt Q9WV26); assay: Test A: displacement of radiolabelled AII binding to cell surface membrane fraction from guinea pig adrenal gland; settings: guinea pig adrenal gland membranes, read-out: IC50 (concentration for 50% displacement of radiolabelled AII binding)
T1 construct: the source of cell surface membranes is the guinea pig adrenal gland; from tissue; host or cells: guinea pig adrenal gland, cell surface membrane fraction
T1 sequence (Q9WV26 1-359): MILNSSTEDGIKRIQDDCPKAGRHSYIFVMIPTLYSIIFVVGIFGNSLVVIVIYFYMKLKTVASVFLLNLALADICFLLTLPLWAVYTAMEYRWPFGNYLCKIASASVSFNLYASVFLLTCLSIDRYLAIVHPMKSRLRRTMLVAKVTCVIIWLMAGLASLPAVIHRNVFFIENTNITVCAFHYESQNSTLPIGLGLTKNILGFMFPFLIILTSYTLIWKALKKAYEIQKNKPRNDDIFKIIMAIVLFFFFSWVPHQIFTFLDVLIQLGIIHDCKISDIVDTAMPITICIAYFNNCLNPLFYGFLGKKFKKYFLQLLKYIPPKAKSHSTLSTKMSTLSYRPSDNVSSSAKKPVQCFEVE
Protocol: This in vitro procedure involves the incubation of the test compound initially at a concentration of 100 micromolar (or less) in a buffered mixture containing fixed concentrations of radiolabelled AII and a cell surface membrane fraction prepared from a suitable angiotensin target tissue. In this test, the source of cell surface membranes is the guinea pig adrenal gland which is well known to respond to AII. Interaction of the radiolabelled AII with its receptors (assessed as radiolabel bound to the particulate membrane fraction following removal of unbound radiolabel by a rapid filtration procedure such as is standard in such studies) is antagonized by compounds which also bind to the membrane receptor sites and the degree of antagonism (observed in the test as displacement of membrane-bound radioactivity) is determined readily by comparing the receptor-bound radioactivity in the presence of the test compound at the specified test concentration with a control value determined in the absence of the test compound. Using this procedure compounds showing at least 50% displacement of radiolabelled AII binding at a concentration of 10^-4 M are retested at lower concentrations to determine their potency. […]

[2] = tested on: pressor responses induced by AII; assay: Test C: antagonism of AII-induced pressor responses in terminally-anaesthetised or conscious rats; type: in vivo; settings: iv, rat, i.v. administration
Protocol: This in vivo test involves using terminally-anaesthetised or conscious rats in which an arterial catheter has been implanted under anaesthesia for the measurement of changes in blood pressure. The AII antagonistic effects of the test compound following oral or parenteral administration, are assessed against pressor responses induced by AII. To ensure that the effect is specific the effect of the test compound on vasopressin-induced pressor responses may also be determined in the same preparation.

CCc1cc(OCc2ccc(-c3ccccc3-c3nnn[nH]3)cc2)c2nc(OC)ccc2n1.Cl [Example 4, 2-ethyl-6-methoxy-4-[(2'-(1H-tetrazol-5-yl)-biphenyl-4-yl)methoxy]-1,5-naphthyridine hydrochloride]
IC50 [1]: 20 nM | ED50 [2]: 0.6 mg/kg
